Assay results reported in patent US20200255478A1, “NOVEL COMPOUNDS ACTIVATING THE NRF2 PATHWAY” (Almirall, S.A., priority 2017, published 2020).
Starred links: 1 amine or outer side, 2 acyl side, 3 side chain; linkers in the order of their positions; H or OH if unused. Positions of bridges follow the written chain, without caps; N, C: chain ends. Non-standard residues stand in square brackets, D forms with d. Residues, ends and D or L forms follow the SMILES beside them. *: point of attachment. Trp(2-yl) = O=C([C@H](Cc1c([*:3])[nH]c2ccccc12)N[*:1])[*:2]; Phe(4-yl) = O=C([C@H](Cc1ccc([*:3])cc1)N[*:1])[*:2]; X8 = O=C([C@H](Cc1cccc([*:3])c1)N[*:1])[*:2]; mXylylene = c1cc(C[*:1])cc(C[*:2])c1; oXylylene = c1ccc(C[*:2])c(C[*:1])c1; Stearoyl = CCCCCCCCCCCCCCCCCC(=O)*; βAla = NCCC(=O)O

The compounds below were run against Keap1-Maltose Binding Protein (MBP tag) (Homo sapiens, UniProt Q14145) (assay: Nrf2-Keap1 HTRF (TR-FRET) binding assay: displacement of biotinylated ETGE peptide from Keap1-MBP). Settings: not given.
Keap1-Maltose Binding Protein (MBP tag), sequence (Q14145 whole entry): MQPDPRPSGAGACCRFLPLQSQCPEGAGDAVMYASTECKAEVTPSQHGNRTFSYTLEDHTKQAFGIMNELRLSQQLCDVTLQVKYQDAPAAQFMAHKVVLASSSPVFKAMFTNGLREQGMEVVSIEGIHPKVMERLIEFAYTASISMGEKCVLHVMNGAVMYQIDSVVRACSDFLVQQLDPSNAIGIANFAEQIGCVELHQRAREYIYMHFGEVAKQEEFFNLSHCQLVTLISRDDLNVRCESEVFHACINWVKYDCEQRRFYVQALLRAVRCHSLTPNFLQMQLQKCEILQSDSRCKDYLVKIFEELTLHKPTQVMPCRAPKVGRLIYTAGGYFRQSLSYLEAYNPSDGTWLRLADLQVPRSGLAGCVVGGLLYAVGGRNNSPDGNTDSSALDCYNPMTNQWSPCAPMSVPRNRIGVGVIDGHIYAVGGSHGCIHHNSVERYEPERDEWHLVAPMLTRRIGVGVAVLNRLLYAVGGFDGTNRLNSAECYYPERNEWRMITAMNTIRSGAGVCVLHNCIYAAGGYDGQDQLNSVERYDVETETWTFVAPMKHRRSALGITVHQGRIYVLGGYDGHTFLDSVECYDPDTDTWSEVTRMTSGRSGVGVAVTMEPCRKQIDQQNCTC
`CC(=O)N[C@H]1C[C@H]2C(=O)N[C@@H](CCC(N)=O)C(=O)N[C@H]3CSCc4ccccc4CSC[C@H](NC(=O)[C@H](CCC(=O)O)NC(=O)CNC(=O)[C@H]([C@@H](C)O)NC(=O)[C@H](CCC(=O)O)NC(=O)[C@@H]4CCCN4C(=O)[C@H](CC(=O)O)NC3=O)C(=O)N[C@@H](CC(C)C)C(=O)N3CCC[C@@H]3C(=O)N2C1` [Example 64, {[&^1Pro((4S)-NH-Acetyl)-Gln-Cys(&^2)-Asp-Pro-Glu-Thr-Gly-Glu-Cys(&^3)-Leu-D-Pro&^1][&^2(1,2-phenylenediy1)dimethylene&^3]}] was tested, and the IC50 was under 1 nM. For `CC(C)C[C@H](NC(=O)[C@@H]1CSc2[nH]c3ccccc3c2C[C@H](NC(=O)[C@H](CCC(N)=O)NC(=O)[C@@H](N)CC(C)C)C(=O)N[C@@H](CC(=O)O)C(=O)N[C@@H](CCC(=O)O)C(=O)N[C@@H](CCC(=O)O)C(=O)N[C@@H]([C@@H](C)O)C(=O)NCC(=O)N[C@@H](CCC(=O)O)C(=O)N1)C(=O)N1CCC[C@H]1C(=O)O` [Example 1, H-Leu-Gln-Trp(indol-2-yl-&^1)-Asp-Glu-Glu-Thr-Gly-Glu-Cys(&^1)-Leu-Pro-OH] (H-LQ[Trp(2-yl)]DEETGECLP-OH; thioether 3-10), the IC50 was 1 to 100 nM. Work on `CCCCCCCCCCCCCCCCCC(=O)N1CCC[C@H]1C(=O)N[C@@H](CCC(N)=O)C(=O)N[C@H]1CSCc2ccccc2CSC[C@@H](C(=O)N[C@@H](CC(C)C)C(=O)N2CCC[C@@H]2C(N)=O)NC(=O)[C@H](CCC(=O)O)NC(=O)CNC(=O)[C@H]([C@@H](C)O)NC(=O)[C@H](CCC(=O)O)NC(=O)[C@@H]2CCCN2C(=O)[C@H](CC(=O)O)NC1=O` [Example 76, {[Stearyl-Pro-Gln-Cys(&^1)-Asp-Pro-Glu-Thr-Gly-Glu-Cys(&^2)-Leu-D-Pro-NH2][&^1(1,2-phenylenediyl)dimethylene^2]}] (Stearoyl-PQCDPETGECL[dP]-NH2; linker 3-10 via oXylylene) yielded an IC50 of 1 to 100 nM. In the case of `CC(C)C[C@@H]1NC(=O)[C@@H]2CCCN2C(=O)[C@H](CC(C)C)NC(=O)[C@@H]2CSCc3cccc(c3)CSC[C@H](NC(=O)[C@H](CCC(N)=O)NC1=O)C(=O)N[C@@H](CC(=O)O)C(=O)N[C@@H](CCC(=O)O)C(=O)N[C@@H](CCC(=O)O)C(=O)N[C@@H]([C@@H](C)O)C(=O)NCC(=O)N[C@@H](CCC(=O)O)C(=O)N2` [Example 4, {[&^1Leu-Gln-Cys(&^2)-Asp-Glu-Glu-Thr-Gly-Glu-Cys(&^3)-Leu-Pro&^1][&^2(1,3-phenylenediyl)dimethylene&^3]}] (cyclo(CDEETGECLPLQ); linker 1-8 via mXylylene), the IC50 is reported as under 1 nM. With `CCCCCCCC/C=C/CCCCCCCC(=O)N[C@H]1C[C@H]2C(=O)N[C@@H](CCC(N)=O)C(=O)N[C@H]3CSCc4ccccc4CSC[C@H](NC(=O)[C@H](CCC(=O)O)NC(=O)CNC(=O)[C@H]([C@@H](C)O)NC(=O)[C@H](CCC(=O)O)NC(=O)[C@@H]4CCCN4C(=O)[C@H](CC(=O)O)NC3=O)C(=O)N[C@@H](CC(C)C)C(=O)N3CCC[C@@H]3C(=O)N2C1` [Example 87, {[&^1Pro((4S)-NH-elaidyl)-Gln-Cys(&^2)-Asp-Pro-Glu-Thr-Gly-Glu-Cys(&^3)-Leu-D-Pro&^1][&^2(1,2-phenylenediyl)dimethylene&^3]}] the IC50 was 1 to 100 nM. In the case of `CCCCCCCCCCCCCCCCCCCCCC(=O)N[C@H]1C[C@H]2C(=O)N[C@@H](CCC(N)=O)C(=O)N[C@H]3CSCc4ccccc4CSC[C@H](NC(=O)[C@H](CCC(=O)O)NC(=O)CNC(=O)[C@H]([C@@H](C)O)NC(=O)[C@H](CCC(=O)O)NC(=O)[C@@H]4CCCN4C(=O)[C@H](CC(=O)O)NC3=O)C(=O)N[C@@H](CC(C)C)C(=O)N3CCC[C@@H]3C(=O)N2C1` [Example 89, {[&^1Pro((4S)-NH-behenyl)-Gln-Cys(&^2)-Asp-Pro-Glu-Thr-Gly-Glu-Cys(&3)-Leu-D-Pro&^1][&^2(1,2-phenylenediyl)dimethylene&^3]}], the IC50 is reported as under 1 nM.

Same assay, conditions: HTRF (TR-FRET); displacement of ETGE-biotin from Keap1-MBP; values banded into grades; read-out: Binding (IC50) ETGE-Keap1
Work on `CC(C)C[C@H](NC(=O)[C@@H]1CSCc2cccc(c2)CSC[C@H](NC(=O)[C@H](CCC(N)=O)NC(=O)[C@@H](N)CC(C)C)C(=O)N[C@@H](CC(=O)O)C(=O)N[C@@H](C)C(=O)N[C@@H](CCC(=O)O)C(=O)N[C@@H]([C@@H](C)O)C(=O)NCC(=O)N[C@@H](CCC(=O)O)C(=O)N1)C(=O)N1CCC[C@H]1C(=O)NCCC(=O)N[C@@H](Cc1ccc(O)cc1)C(=O)N[C@@H](C)C(=O)N[C@@H](CCCNC(=N)N)C(=O)N[C@@H](C)C(=O)N[C@@H](C)C(=O)N[C@@H](C)C(=O)N[C@@H](CCCNC(=N)N)C(=O)N[C@@H](CCC(N)=O)C(=O)N[C@@H](C)C(=O)N[C@@H](CCCNC(=N)N)C(=O)N[C@@H](C)C(N)=O` [Example 15] (H-LQCDAETGECLP[βAla]YARAAARQARA-NH2; linker 3-10 via mXylylene) yielded an IC50 of 1 to 100 nM. Work on `CCCCCCCCCCCCCCCCCC(=O)NCCC(=O)N[C@@H](CC(C)C)C(=O)N[C@@H](CCC(N)=O)C(=O)N[C@H]1CSCc2cccc(c2)CSC[C@@H](C(=O)N[C@@H](CC(C)C)C(=O)N2CCC[C@H]2C(=O)O)NC(=O)[C@H](CCC(=O)O)NC(=O)CNC(=O)[C@H]([C@@H](C)O)NC(=O)[C@H](CCC(=O)O)NC(=O)[C@H](C)NC(=O)[C@H](CC(=O)O)NC1=O` [Example 39, {[Stearyl-βAla-Leu-Gln-Cys(&^1)-Asp-Ala-Glu-Thr-Gly-Glu-Cys(&^2)-Leu-Pro-OH][&^1(1,3-phenylenediyl)dimethylene&^2]}] ({Stearoyl-βAla}-LQCDAETGECLP-OH; linker 3-10 via mXylylene) yielded an IC50 of 1 to 100 nM. For `CC(C)C[C@H](NC(=O)[C@@H]1CSCc2cccc(c2)CSC[C@H](NC(=O)[C@H](CCC(N)=O)NC(=O)[C@@H](N)CC(C)C)C(=O)N[C@@H](CC(=O)O)C(=O)N[C@@H](CCC(=O)O)C(=O)N[C@@H](CCC(=O)O)C(=O)N[C@@H]([C@@H](C)O)C(=O)NCC(=O)N[C@@H](CCC(=O)O)C(=O)N1)C(=O)N1CCC[C@H]1C(=O)NCCC(=O)N[C@@H](CCCNC(=N)N)C(=O)N[C@@H](CCCCN)C(=O)N[C@@H](CCCCN)C(=O)N[C@@H](CCCNC(=N)N)C(=O)N[C@@H](CCCNC(=N)N)C(=O)N[C@@H](CCC(N)=O)C(=O)N[C@@H](CCCNC(=N)N)C(=O)N[C@@H](CCCNC(=N)N)C(=O)N[C@@H](CCCNC(=N)N)C(N)=O` [Example 9], the IC50 was 1 to 100 nM. `CC(=O)N[C@H]1CSCc2ccccc2CSC[C@@H](C(N)=O)NC(=O)[C@H](CCC(=O)O)NC(=O)CNC(=O)[C@H]([C@@H](C)O)NC(=O)[C@H](CCC(=O)O)NC(=O)[C@H](C)N(C)C(=O)[C@H](CC(=O)O)NC1=O` [Example 43, {[Acetyl-Cys(&^1)-Asp-MeAla-Glu-Thr-Gly-Glu-Cys(&^2)-NH2][&^1(1,2-phenylenediyl)dimethylene&^2]}] was tested, and the IC50 was 1 to 100 nM. Compound `CC(C)C[C@H](NC(=O)[C@@H]1CSc2[nH]c3ccccc3c2C[C@H](NC(=O)[C@H](CCC(N)=O)NC(=O)[C@@H](N)CC(C)C)C(=O)N[C@@H](CC(=O)O)C(=O)N[C@@H](CCC(=O)O)C(=O)N[C@@H](CCC(=O)O)C(=O)N[C@@H]([C@@H](C)O)C(=O)NCC(=O)N[C@@H](CCC(=O)O)C(=O)N1)C(=O)N1CCC[C@H]1C(=O)NCCC(=O)N[C@@H](CCCNC(=N)N)C(=O)N[C@@H](CCCCN)C(=O)N[C@@H](CCCCN)C(=O)N[C@@H](CCCNC(=N)N)C(=O)N[C@@H](CCCNC(=N)N)C(=O)N[C@@H](CCC(N)=O)C(=O)N[C@@H](CCCNC(=N)N)C(=O)N[C@@H](CCCNC(=N)N)C(=O)N[C@@H](CCCNC(=N)N)C(N)=O` [Example 8] has an IC50 of 1 to 100 nM. `CC(=O)N[C@H]1Cc2ccc(cc2)SC[C@@H](C(N)=O)NC(=O)[C@H](CCC(=O)O)NC(=O)CNC(=O)[C@H]([C@@H](C)O)NC(=O)[C@H](CCC(=O)O)NC(=O)[C@H](CCC(=O)O)NC(=O)[C@H](CC(=O)O)NC1=O` [Example 10, Acetyl-Phe(p-&^1)-Asp-Glu-Glu-Thr-Gly-Glu-Cys(&^1)-NH2] (Ac-[Phe(4-yl)]DEETGEC-NH2; thioether 1-8) gave an IC50 of 100 to 5000 nM. `CC(C)C[C@H](NC(=O)[C@H](CC(C)C)NC(=O)[C@@H]1CSCc2cc3ccccc3cc2CSC[C@H](NC(=O)[C@H](CC(C)C)NC(=O)[C@@H](N)CC(C)C)C(=O)N[C@@H](CC(=O)O)C(=O)N2CCC[C@H]2C(=O)N[C@@H](CCC(=O)O)C(=O)N[C@@H]([C@@H](C)O)C(=O)NCC(=O)N[C@@H](CCC(=O)O)C(=O)N1)C(=O)NCCC(=O)N[C@@H](CCCNC(=N)N)C(=O)N[C@@H](CCCCN)C(=O)N[C@@H](CCCCN)C(=O)N[C@@H](CCCNC(=N)N)C(=O)N[C@@H](CCCNC(=N)N)C(=O)N[C@@H](CCC(N)=O)C(=O)N[C@@H](CCCNC(=N)N)C(=O)N[C@@H](CCCNC(=N)N)C(=O)N[C@@H](CCCNC(=N)N)C(N)=O` [Example 58] was tested, and the IC50 was under 1 nM. `CCCCCCCCCCCCCCCCCC(=O)NCCC(=O)N[C@@H](CC(C)C)C(=O)N[C@@H](CCC(N)=O)C(=O)N[C@H]1Cc2cccc(c2)SC[C@@H](C(=O)N[C@@H](CC(C)C)C(=O)N2CCC[C@H]2C(=O)O)NC(=O)[C@H](CCC(=O)O)NC(=O)CNC(=O)[C@H]([C@@H](C)O)NC(=O)[C@H](CCC(=O)O)NC(=O)[C@@H]2CCCN2C(=O)[C@H](CC(=O)O)NC1=O` [Example 40, Stearyl-βAla-Leu-Gln-Phe(m-&^1)-Asp-Pro-Glu-Thr-Gly-Glu-Cys(&^1)-Leu-Pro-OH] ({Stearoyl-βAla}-LQ[X8]DPETGECLP-OH; thioether 3-10) gave an IC50 of 1 to 100 nM. `CCCCCCCCCCCCCCCCCC(=O)NCCC(=O)N[C@@H](CC(C)C)C(=O)N[C@@H](CC(C)C)C(=O)N[C@H]1CSCC2(COC2)CSC[C@@H](C(=O)N[C@@H](CC(C)C)C(=O)N[C@@H](CC(C)C)C(N)=O)NC(=O)[C@H](CCC(=O)O)NC(=O)CNC(=O)[C@H]([C@@H](C)O)NC(=O)[C@H](CCC(=O)O)NC(=O)[C@@H]2CCCN2C(=O)[C@H](CC(=O)O)NC1=O` [Example 99, {[Stearyl-βAla-Leu-Leu-Cys(&^1)-Asp-Pro-Glu-Thr-Gly-Glu-Cys(&^2)-Leu-Leu-NH2][&^1(3,3-oxetanediyl)dimethylene&^2]}] gave an IC50 of under 1 nM. `CCCCCCCCCCCCCCCCCC(=O)NCCC(=O)N(C)[C@@H](CC(C)C)C(=O)N[C@@H](CCC(N)=O)C(=O)N[C@H]1CSCc2ccccc2CSC[C@@H](C(=O)N[C@@H](CC(C)C)C(=O)N2CCC[C@H]2C(N)=O)NC(=O)[C@H](CCC(=O)O)NC(=O)CNC(=O)[C@H]([C@@H](C)O)NC(=O)[C@H](CCC(=O)O)NC(=O)[C@@H]2CCCN2C(=O)[C@H](CC(=O)O)NC1=O` [Example 45, {[Stearyl-βAla-MeLeu-Gln-Cys(&^1)-Asp-Pro-Glu-Thr-Gly-Glu-Cys(&^2)-Leu-Pro-NH2][&^1(1,2-phenylenediyl)dimethylene&^2]}] gave an IC50 of 1 to 100 nM.
